Reference: ChEMBL document CHEMBL1142918, “Carbonic anhydrase and matrix metalloproteinase inhibitors. Inhibition of human tumor-associated isozymes IX and cytosolic isozyme I and II with sulfonylated hydroxamates” (Bioorg Med Chem, 2007)

Tests used:
Carbonic anhydrase 2 = Carbonic anhydrase 2 (Homo sapiens, UniProt P00918)
Description: Inhibition of human recombinant carbonic anhydrase 2 by CO2 hydration method

[1] = target: 72 kDa type IV collagenase (Homo sapiens, UniProt P08253)
Description: Inhibition of human recombinant MMP2 expressed in mouse myeloma cells

Carbonic anhydrase 9 = Carbonic anhydrase 9 (Homo sapiens, UniProt Q16790)
Description: Inhibition of human recombinant carbonic anhydrase 9 by CO2 hydration method

Carbonic anhydrase 1 = Carbonic anhydrase 1 (Homo sapiens, UniProt P00915)
Carbonic anhydrase 1, sequence (P00915 whole entry): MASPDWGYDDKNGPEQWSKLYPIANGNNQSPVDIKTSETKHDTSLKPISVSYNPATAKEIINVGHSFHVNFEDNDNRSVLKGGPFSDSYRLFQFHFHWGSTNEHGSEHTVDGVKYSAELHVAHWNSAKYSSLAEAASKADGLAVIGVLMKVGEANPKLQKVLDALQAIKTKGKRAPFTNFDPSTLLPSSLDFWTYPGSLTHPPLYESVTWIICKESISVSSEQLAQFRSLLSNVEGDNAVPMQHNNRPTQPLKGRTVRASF
Description: Inhibition of human recombinant carbonic anhydrase 1 by CO2 hydration method

[2] = target: Matrix metalloproteinase-9 (Homo sapiens, UniProt P14780)
Matrix metalloproteinase-9, sequence (P14780 whole entry): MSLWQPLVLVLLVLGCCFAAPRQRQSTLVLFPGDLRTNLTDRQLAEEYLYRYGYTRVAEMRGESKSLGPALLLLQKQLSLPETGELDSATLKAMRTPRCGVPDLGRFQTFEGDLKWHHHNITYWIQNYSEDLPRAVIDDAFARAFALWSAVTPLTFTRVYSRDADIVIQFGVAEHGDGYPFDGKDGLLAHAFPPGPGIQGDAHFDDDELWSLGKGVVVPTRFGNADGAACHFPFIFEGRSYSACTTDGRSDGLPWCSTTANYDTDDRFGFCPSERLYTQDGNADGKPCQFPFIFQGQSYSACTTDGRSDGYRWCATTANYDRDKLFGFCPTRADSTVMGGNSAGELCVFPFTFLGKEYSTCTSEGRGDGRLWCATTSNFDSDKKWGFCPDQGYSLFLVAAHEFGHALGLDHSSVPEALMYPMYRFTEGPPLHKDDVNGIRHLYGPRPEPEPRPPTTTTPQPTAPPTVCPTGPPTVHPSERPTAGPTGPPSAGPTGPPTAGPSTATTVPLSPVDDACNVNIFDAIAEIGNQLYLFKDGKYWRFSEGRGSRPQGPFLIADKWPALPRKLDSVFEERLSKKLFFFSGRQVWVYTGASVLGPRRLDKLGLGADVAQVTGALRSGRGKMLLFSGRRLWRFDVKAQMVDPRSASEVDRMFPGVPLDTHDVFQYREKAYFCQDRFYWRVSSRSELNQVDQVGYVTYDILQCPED
Description: Inhibition of human recombinant MMP9 expressed in mouse myeloma cells

72 kDa type IV collagenase, sequence (P08253 whole entry): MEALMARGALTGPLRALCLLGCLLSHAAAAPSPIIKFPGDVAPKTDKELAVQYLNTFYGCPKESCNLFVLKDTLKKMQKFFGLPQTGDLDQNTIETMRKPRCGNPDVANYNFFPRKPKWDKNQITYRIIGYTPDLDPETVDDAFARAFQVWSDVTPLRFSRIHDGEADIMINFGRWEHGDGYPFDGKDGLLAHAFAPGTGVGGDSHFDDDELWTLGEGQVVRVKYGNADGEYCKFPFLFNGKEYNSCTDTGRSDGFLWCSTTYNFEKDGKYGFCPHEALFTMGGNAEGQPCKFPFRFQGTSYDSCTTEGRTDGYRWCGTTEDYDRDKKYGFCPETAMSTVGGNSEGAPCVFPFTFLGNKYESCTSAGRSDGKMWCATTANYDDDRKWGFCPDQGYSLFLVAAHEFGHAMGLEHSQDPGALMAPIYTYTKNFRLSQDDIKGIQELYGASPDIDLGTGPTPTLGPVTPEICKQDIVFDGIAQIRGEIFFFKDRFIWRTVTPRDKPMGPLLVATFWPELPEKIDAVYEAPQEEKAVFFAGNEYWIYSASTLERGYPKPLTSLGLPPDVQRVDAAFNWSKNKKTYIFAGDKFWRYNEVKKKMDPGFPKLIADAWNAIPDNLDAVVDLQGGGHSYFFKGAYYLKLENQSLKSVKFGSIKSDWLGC

SMILES	Ki (Carbonic anhydrase 2)	IC50 [1]	Ki (Carbonic anhydrase 9)	Ki (Carbonic anhydrase 1)	IC50 [2]
CCC(C)C(NOCc1ccccc1)C(=O)NO (stereo not drawn)	267 µM	151 µM	7.1 µM	435 µM	352 µM
COc1ccc(S(=O)(=O)N(CC(=O)NO)OCc2ccccc2)cc1	0.096 µM	1.06 µM	7.5 µM	0.88 µM	0.87 µM
COc1ccc(S(=O)(=O)N(CC(=O)NO)OC2C3CC4CC(C3)CC2C4)cc1 (stereo not drawn)	0.096 µM	1.98 µM	7.8 µM	0.9 µM	2 µM
COc1ccc(S(=O)(=O)N(Cc2cccnc2)[C@@H](C(=O)NO)C(C)C)cc1 [CGS-27023A]	8.6 µM	–	7.8 µM	281 µM	–
CCON(CC(=O)NO)S(=O)(=O)c1ccc(OC)cc1	8.7 µM	9.6 µM	9 µM	8.91 µM	2.2 µM
CCCCC(NOCc1ccccc1)C(=O)NO (stereo not drawn)	7.8 µM	33.7 µM	7.6 µM	520 µM	81.5 µM
CCC(C)ON(C(C(=O)NO)C(C)C)S(=O)(=O)c1ccc(OC)cc1 (stereo not drawn)	9.6 µM	0.73 µM	9.2 µM	9.7 µM	0.286 µM
COc1ccc(S(=O)(=O)N(CC(=O)NO)OCc2ccc(OCc3ccccc3)cc2)cc1	0.095 µM	2.1 µM	8.7 µM	5.9 µM	1.83 µM
CCCCC(NOCc1ccc(Cl)cc1)C(=O)NO (stereo not drawn)	6.1 µM	81.8 µM	6.9 µM	10.2 µM	125 µM
O=C(CNOCc1ccccc1)NO	94 µM	94 µM	6.7 µM	490 µM	256 µM

Further compounds by falling Ki (Carbonic anhydrase 2), results first:

Ki (Carbonic anhydrase 2)	IC50 [1]	Ki (Carbonic anhydrase 9)	Ki (Carbonic anhydrase 1)	IC50 [2]	SMILES
4.8 µM	137 µM	8.8 µM	10 µM	261 µM	O=C(CNOCc1ccc(Cl)cc1)NO
4.7 µM	68 µM	9.2 µM	9.8 µM	141 µM	CC(NOCc1ccc(Cl)cc1)C(=O)NO (stereo not drawn)
4.2 µM	1.5 µM	9.3 µM	156 µM	0.33 µM	COc1ccc(S(=O)(=O)N(CC(=O)NO)OCc2ccc(Cl)cc2)cc1
0.097 µM	30 µM	7.4 µM	0.89 µM	33 µM	CCCCCCCCCCCCCCON(CC(=O)NO)S(=O)(=O)c1ccc(OC)cc1
0.094 µM	0.66 µM	9.3 µM	9 µM	0.37 µM	COc1ccc(S(=O)(=O)N(OC(C)C)C(C(=O)NO)C(C)C)cc1 (stereo not drawn)
0.091 µM	4.9 µM	9.5 µM	4.1 µM	3.4 µM	COc1ccc(S(=O)(=O)N(CC(=O)NO)OC(C)C)cc1
